Data as given in the supplement of paper PMC10307832.

How the values were obtained:
Experiment in all cases: relative viability (nuclei count vs DMSO), 5 days (fraction); higher = more cells survive
[1] = compound: CC[C@@H](C)CNCC(=O)N1CCC2=C([C@@H]1COC3=CC=CC(=C3)C)C=CS2 [RU-SKI 43] + CC(=O)Nc1cccc(-n2c(=O)n(C3CC3)c(=O)c3c(Nc4ccc(I)cc4F)n(C)c(=O)c(C)c32)c1 [Trametinib] (partner 0.02 µM)
How it was run: (§1)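 Relative viability divides the nuclei count in treated wells by that in vehicle wells. Lung cancer cell lines were seeded in 1536-well plates, dosed by pin tool the next day, and fixed and stained after 5 days in one step with final 0.05% Triton X-100, 1% formaldehyde and 1 ug/ml Hoechst. Dosing was a single drug or a fixed anchor-drug dose plus five library-drug doses (not always all listed) in √10 steps, and values are medians of duplicate plates imaged at 4×.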

[2] = compound: CC[C@@H](C)CNCC(=O)N1CCC2=C([C@@H]1COC3=CC=CC(=C3)C)C=CS2 [RU-SKI 43] + Nc1nc2[nH]cc(CCc3ccc(C(=O)N[C@@H](CCC(=O)O)C(=O)O)cc3)c2c(=O)[nH]1 [Pemetrexed] (partner 0.2 µM)
How it was run: as §1

[3] = compound: CCc1c2c(nc3ccc(OC(=O)N4CCC(N5CCCCC5)CC4)cc13)-c1cc3c(c(=O)n1C2)COC(=O)[C@]3(O)CC [Irinotecan] + CCNC(=O)c1noc(-c2cc(C(C)C)c(O)cc2O)c1-c1ccc(CN2CCOCC2)cc1 [Luminespib] (partner 0.01 µM)
How it was run: as §1

[4] = compound: CCc1c2c(nc3ccc(OC(=O)N4CCC(N5CCCCC5)CC4)cc13)-c1cc3c(c(=O)n1C2)COC(=O)[C@]3(O)CC [Irinotecan] + NC(=O)Nc1cc(-c2cccc(F)c2)sc1C(=O)N[C@H]1CCCNC1 [AZD7762] (partner 0.2 µM)
How it was run: as §1

Row | Cell Line | relative viability ([1]; first compound 0.1 µM) | relative viability ([1]; first compound 0.3162 µM) | relative viability ([1]; first compound 1 µM) | relative viability ([1]; first compound 3.162 µM) | relative viability ([1]; first compound 10 µM) | relative viability ([2]; first compound 0.1 µM) | relative viability ([2]; first compound 0.3162 µM) | relative viability ([2]; first compound 1 µM) | relative viability ([2]; first compound 3.162 µM) | relative viability ([2]; first compound 10 µM) | relative viability ([3]; first compound 0.6325 µM) | relative viability ([3]; first compound 2 µM) | relative viability ([3]; first compound 6.325 µM) | relative viability ([3]; first compound 20 µM) | relative viability ([4]; first compound 2 µM) | relative viability ([4]; first compound 6.325 µM) | relative viability ([4]; first compound 20 µM) | relative viability ([4]; first compound 0.6325 µM)
1 | NCI-H460 | 0.224 | 0.2 | 0.141 | 0.197 | 0.0732 | 0.0581 | 0.0578 | 0.0612 | 0.0618 | 0.0606 | 0.019 | 0.0388 | 0.0428 | 0.047 | 0.202 | 0.0963 | 0.0901 | 
2 | NCI-H1792 | 0.36 | 0.53 | 0.486 | 0.327 | 0.362 | 0.734 | 1.04 | 1.24 | 0.77 | 0.842 | 0.726 | 0.491 | 0.34 | 0.321 | 0.502 | 0.169 | 0.274 | 0.241
3 | NCI-H2087 | 0.233 | 0.159 | 0.221 | 0.189 | 0.161 | 0.684 | 0.762 | 0.714 | 0.694 | 0.692 | 0.158 | 0.183 | 0.2 | 0.261 | 0.387 | 0.242 | 0.226 | 0.586
4 | EKVX | 0.275 | 0.312 | 0.268 | 0.349 | 0.315 | 0.419 | 0.344 | 0.417 | 0.407 | 0.393 | 0.81 | 0.667 | 0.379 | 0.154 | 0.632 | 0.426 | 0.246 | 
5 | NCI-H1355 | 0.451 | 0.437 | 0.376 | 0.477 | 0.464 | 1.02 | 1.09 | 1.09 | 1.14 | 1.05 |  | 0.515 | 0.308 | 0.278 | 0.68 | 0.368 | 0.257 | 
6 | PC-3 [JPC-3] | 0.63 | 0.523 | 0.79 | 0.662 | 0.62 | 1.09 | 0.917 | 1.37 | 1.15 | 1.2 | 0.642 | 0.431 | 0.334 | 0.36 | 0.864 | 0.463 | 0.398 | 0.465
7 | NCI-H2085 | 0.506 | 0.493 | 0.494 | 0.653 | 0.499 | 1.02 | 0.899 | 0.894 | 0.85 | 0.845 | 0.312 | 0.431 | 0.445 | 0.519 | 0.942 | 0.957 | 0.672 | 0.771
8 | NCI-H1993 | 0.474 | 0.514 | 0.615 | 0.579 | 0.694 | 0.59 | 0.625 | 0.558 | 0.624 | 0.465 | 0.784 | 0.745 | 0.667 | 1.58 | 0.681 | 0.508 | 0.603 | 
